Results taken from BindingDB's records for doi:10.1021/jm040903t (Sapienza University of Rome, 2005).

How the values were obtained:
[1] = target: T1, Amine oxidase [flavin-containing] B (Bos taurus, UniProt P56560); assay: MAO Inhibition Assay; conditions: pH 7.4; 38 °C
T1 sequence (P56560 whole entry): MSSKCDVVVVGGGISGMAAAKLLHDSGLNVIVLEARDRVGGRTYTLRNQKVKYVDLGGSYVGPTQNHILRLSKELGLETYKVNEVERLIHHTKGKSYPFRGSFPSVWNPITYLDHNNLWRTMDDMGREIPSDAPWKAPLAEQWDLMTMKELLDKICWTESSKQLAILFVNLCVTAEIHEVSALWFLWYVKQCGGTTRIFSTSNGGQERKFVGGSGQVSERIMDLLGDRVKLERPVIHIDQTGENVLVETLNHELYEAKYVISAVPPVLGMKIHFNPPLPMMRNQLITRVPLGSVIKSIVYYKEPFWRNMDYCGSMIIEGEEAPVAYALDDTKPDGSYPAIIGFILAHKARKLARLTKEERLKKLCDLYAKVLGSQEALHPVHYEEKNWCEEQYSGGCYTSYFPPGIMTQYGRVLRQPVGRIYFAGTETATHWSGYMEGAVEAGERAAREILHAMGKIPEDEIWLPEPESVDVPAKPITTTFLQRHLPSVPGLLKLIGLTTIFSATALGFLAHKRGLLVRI
Method: (§1) MAO A and MAO B activities were determined […] using kynuramine as substrates. Fluorimetric measurements were recorded with a Perkin-Elmer LS 50B spectrofluorimeter. Dixon plots were used to estimate the inhibition constant (Ki) of the inhibitors. The data are the mean values of three or more experiments performed in duplicate.

[2] = target: T2, Amine oxidase [flavin-containing] A (Bos taurus, UniProt P21398); assay: MAO Inhibition Assay; conditions: pH 7.4; 38 °C
T2 sequence (P21398 whole entry): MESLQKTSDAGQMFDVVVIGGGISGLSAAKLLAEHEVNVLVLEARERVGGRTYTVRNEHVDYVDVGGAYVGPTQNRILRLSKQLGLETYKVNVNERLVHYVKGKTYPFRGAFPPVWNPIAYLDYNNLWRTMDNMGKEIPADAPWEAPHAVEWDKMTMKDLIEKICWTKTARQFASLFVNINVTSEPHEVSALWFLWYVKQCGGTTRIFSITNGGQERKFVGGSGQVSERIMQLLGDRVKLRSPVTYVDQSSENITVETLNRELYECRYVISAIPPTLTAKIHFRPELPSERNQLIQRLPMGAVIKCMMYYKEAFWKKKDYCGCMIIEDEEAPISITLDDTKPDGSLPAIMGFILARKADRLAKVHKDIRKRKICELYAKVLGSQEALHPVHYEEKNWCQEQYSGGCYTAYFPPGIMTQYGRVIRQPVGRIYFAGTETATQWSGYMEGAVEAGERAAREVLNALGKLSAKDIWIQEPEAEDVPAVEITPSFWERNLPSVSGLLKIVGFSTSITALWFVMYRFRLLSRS
Method: as §1

| Ki [1] [nM] | Ki [2] [nM] | Structure (SMILES) |
| --- | --- | --- |
| 1.5 | – | Cc1ccc(C2=NN(C(N)=S)C(c3ccc(Cl)cc3)C2)cc1 (configuration not stated) [5-(4-chlorophenyl)-3-(4-methylphenyl)-4,5-dihydro-1H-pyrazole-1-carbothioamide] |
| – | 5 | NC(=S)N1N=C(c2ccc(F)cc2)C[C@H]1c1ccc(Cl)cc1 [(5S)-5-(4-chlorophenyl)-3-(4-fluorophenyl)-4,5-dihydro-1H-pyrazole-1-carbothioamide] |
